Data reported in PubChem BioAssay AID2124 (Sanford-Burnham Center for Chemical Genomics, 2009).
Records with an inconclusive call do not appear. Calls of active or inactive are those of the source. No rule for the calls is given here; tested in MIN6 cells.

How the values were obtained:
[1] = system: cells, GFP-channel autofluorescence, high-content imaging; assay: GFP-wavelength compound autofluorescence in cells – imaging, high-content imaging, artefact control, dose response (AID 2124);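 as to cell count: cells exposed to compound for 48 hours before fixing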
[2] = as above; conditions: cells, GFP-channel autofluorescence, high-content imaging; cell count; at 10 µM

## COc1cc(/C=C(\C#N)c2nc3ccccc3o2)ccc1O
[1]
  EC50: 2.62 µM
[2]
  cell count: 3540 cells

## CN1CC=C2C(C#N)=C(N)C(C#N)(C#N)C(c3ccsc3)C2C1 (configuration not stated)
[1]
  EC50: > 16 µM (inactive)
[2]
  cell count: 2400 cells

## CCCN1C(=O)/C(=C/c2c(N3CCNC(=O)C3CC(=O)OCC)nc3c(C)cccn3c2=O)SC1=S (configuration not stated)
[1]
  EC50: 5.56 µM
[2]
  cell count: 2790 cells

## COc1ccc2c(c1)NC(c1ccc(N(C)C)cc1)c1cccn1-2 (configuration not stated)
[1]
  EC50: 3.12 µM
[2]
  cell count: 2940 cells

## N#Cc1cccc(NC(=O)CSc2ccc3c4c(cccc24)C(=O)c2ccccc2-3)c1
[1]
  EC50: 4.73 µM
[2]
  cell count: 3090 cells

## COc1cc([C@@H]2[C@H]3CN(C)CC=C3C(C#N)=C(N)C2(C#N)C#N)cc2c1OCO2
[1]
  EC50: 9.32 µM
[2]
  cell count: 3070 cells

## O=c1c(Cl)c2oc3ccccc3nc-2c2ccccc12
[1]
  EC50: 6.42 µM
[2]
  cell count: 2670 cells

## CCCN1C=CC(=C/C=C(\C#N)C(=O)OCC)C=C1
[1]
  EC50: 6.81 µM
[2]
  cell count: 2900 cells

## O=c1oc2c3c4c(cc2c(C(F)(F)F)c1CCN1CCOCC1)CCCN4CCC3
[1]
  EC50: 8.25 µM
[2]
  cell count: 3400 cells

## C=CCN1C=CC(=CC=C(C#N)C#N)C=C1
[1]
  EC50: 8.1 µM
[2]
  cell count: 2960 cells

## C=CCN1C(=O)/C(=C\C=C2\N(C)c3ccccc3C2(C)C)SC1=S
[1]
  EC50: 6.86 µM
[2]
  cell count: 2620 cells

## CCCN1C=CC(=CC=C(C#N)C#N)C=C1
[1]
  EC50: 7.84 µM
[2]
  cell count: 3220 cells

## CCCCN1C(=O)/C(=C/C=C2\N(C)c3ccccc3C2(C)C)SC1=S
[1]
  EC50: 2.65 µM
[2]
  cell count: 2910 cells

## O=C1c2cccc3c(O)ccc(c23)C(=O)N1Cc1ccco1
[1]
  EC50: 14.6 µM (inactive)
[2]
  cell count: 2850 cells

## O=C(C1=C(O)C(=O)N(c2nccs2)C1c1ccccc1)c1cc2ccccc2o1 (configuration not stated)
[1]
  EC50: 8.55 µM
[2]
  cell count: 2920 cells

## CC(=O)c1c(C)[nH]c(-c2ccccc2)nc1=S
[1]
  EC50: 2.37 µM
[2]
  cell count: 3120 cells

## CCCNc1c(F)c(F)c2c(C)c3ccccc3nc2c1F
[1]
  EC50: 10.9 µM (inactive)
[2]
  cell count: 3140 cells

## CCOC(=O)CN1C(=O)S/C(=C/c2ccc(N3CCCCC3)o2)C1=O
[1]
  EC50: 7.22 µM
[2]
  cell count: 3180 cells

## CN1CC=C2C(C#N)=C(N)C(C#N)(C#N)[C@H](c3cccs3)[C@H]2C1
[1]
  EC50: > 16 µM (inactive)
[2]
  cell count: 2820 cells

## N#Cc1c(NC(=S)NC(=O)c2ccccc2)sc2c1CCN(CCc1ccccc1)C2
[1]
  EC50: 5.79 µM
[2]
  cell count: 2330 cells

## Cc1cc(/C=C2/C(=O)N(C)C(=S)N2C)ccc1N1CCCC1
[1]
  EC50: 3.02 µM
[2]
  cell count: 2680 cells

## CC1=C/C(=C\C=C(C#N)C#N)N(C)c2ccccc21
[1]
  EC50: 3.23 µM
[2]
  cell count: 3120 cells

## CCN(CC)c1ccc2cc(C(N)=O)/c(=N\NC(=O)c3ccncc3)oc2c1
[1]
  EC50: 9.35 µM
[2]
  cell count: 3100 cells

## CCCCn1nc(-c2ccccc2)c2nc3ccccc3nc21
[1]
  EC50: 13.8 µM (inactive)
[2]
  cell count: 3250 cells

## CCN1CCc2c(sc(NC(=S)NC(=O)c3ccc(Cl)cc3)c2C(N)=O)C1
[1]
  EC50: 6.61 µM
[2]
  cell count: 3040 cells

## CN1CCS/C1=C/C=C1/SC(=S)N(Cc2ccccc2)C1=O
[1]
  EC50: 8.87 µM
[2]
  cell count: 2970 cells

## CCCN1C(=O)/C(=C\C=C2\N(CC)c3ccccc3C2(C)C)SC1=S
[1]
  EC50: 7.93 µM
[2]
  cell count: 2900 cells

## O=C(O)c1ccccc1N/N=C/c1c(Sc2nnnn2-c2ccccc2)nc2ccccn2c1=O
[1]
  EC50: 10.7 µM (inactive)
[2]
  cell count: 3260 cells

## C=CCN1C(=O)/C(=C/c2ccc(N(C)C)cc2)S/C1=N\c1nnc(CC)s1
[1]
  EC50: 5.38 µM
[2]
  cell count: 2900 cells

## CC(=O)Nc1cccc(C(=O)/C=C/c2ccc(N(C)C)cc2)c1
[1]
  EC50: 12 µM (inactive)
[2]
  cell count: 2940 cells

## O=C(O)c1cc(-c2ccc(/C=C3/SC(=S)N(Cc4ccccc4)C3=O)o2)ccc1Cl
[1]
  EC50: 7.47 µM
[2]
  cell count: 2840 cells

## COc1cccc2sc(NNC(=O)C3=COCCO3)nc12
[1]
  EC50: 8.52 µM
[2]
  cell count: 3320 cells

## CCCN1CCc2c(sc(NC(=S)NC(=O)c3ccccc3)c2C#N)C1
[1]
  EC50: 13.3 µM (inactive)
[2]
  cell count: 3200 cells

## N#C/C(=C\N1CCN(Cc2ccc3c(c2)OCO3)CC1)c1nc2ccccc2s1
[1]
  EC50: 10.7 µM (inactive)
[2]
  cell count: 3300 cells

## CN1/C(=C\C=C(/C#N)C(=O)Nc2ccccc2F)C(C)(C)c2ccccc21
[1]
  EC50: 6.93 µM
[2]
  cell count: 2910 cells

## Cc1csc(NC(=O)c2sc3nc(-c4cccs4)ccc3c2N)n1
[1]
  EC50: 15.7 µM (inactive)
[2]
  cell count: 2840 cells

## COc1ccc2c(n1)Sc1nc3ccccc3nc1N2
[1]
  EC50: 6.69 µM
[2]
  cell count: 3030 cells

## COc1cc([C@@H]2[C@H]3CNCC=C3C(C#N)=C(N)C2(C#N)C#N)ccc1OC(C)C
[1]
  EC50: 13.6 µM (inactive)
[2]
  cell count: 3160 cells

## O=C1c2cccc3c(O)ccc(c23)C(=O)N1Cc1ccccc1
[1]
  EC50: > 16 µM (inactive)
[2]
  cell count: 2660 cells

## N#CC1=C(N)C(C#N)(C#N)[C@H](c2ccoc2)[C@H]2CN(Cc3ccccc3)CC=C12
[1]
  EC50: 10.3 µM (inactive)
[2]
  cell count: 2630 cells

## CCCN1C(=O)S/C(=C/c2ccc(N3CCOCC3)o2)C1=O
[1]
  EC50: 5.4 µM
[2]
  cell count: 3210 cells

## COc1cc(OC)c(-c2c3cc(O)c(=O)cc-3oc3cc(O)c(O)cc23)cc1OC
[1]
  EC50: 13.5 µM (inactive)
[2]
  cell count: 3000 cells

## CC(=O)c1cc(NC(=O)c2ccc(Cl)cc2)c(=O)oc1/C=C/N(C)C
[1]
  EC50: 9.14 µM
[2]
  cell count: 2840 cells

## Cc1ccc(S(=O)(=O)CCSc2nc(C)cc(C(F)(F)F)c2C#N)cc1
[1]
  EC50: 7.21 µM
[2]
  cell count: 2460 cells

## Cc1c(-c2ccc(O)cc2)nc2nc(-c3ccccc3)c(-c3ccccc3)nn12
[1]
  EC50: > 16 µM (inactive)
[2]
  cell count: 3200 cells

## Cc1cc2nc3c(=O)n(C4CCCCC4)c(=O)[nH]c3nc2cc1N
[1]
  EC50: 11.8 µM (inactive)
[2]
  cell count: 3150 cells

## Cc1cccc(N=Cc2[nH]c3ccc(Br)c(Cl)c3c2O)c1
[1]
  EC50: > 16 µM (inactive)
[2]
  cell count: 3340 cells

## CCN1CC=C2C(C#N)=C(N)C(C#N)(C#N)C(c3cc(Cl)ccc3Cl)C2C1 (configuration not stated)
[1]
  EC50: 12.8 µM (inactive)
[2]
  cell count: 2980 cells

## O=C1c2cccc3c(N4CCCCC4)ccc(c23)C(=O)N1c1ccccc1O
[1]
  EC50: 15.3 µM (inactive)
[2]
  cell count: 3140 cells

## Cc1cccn2c(=O)c(/C=C3\SC(=S)N(CC(C)C)C3=O)c(NCCCOC(C)C)nc12
[1]
  EC50: > 16 µM (inactive)
[2]
  cell count: 2810 cells

## CC(C)N1CC=C2C(C#N)=C(N)C(C#N)(C#N)C(c3ccccc3)C2C1 (configuration not stated)
[1]
  EC50: 8.22 µM
[2]
  cell count: 3040 cells

## Oc1ccc(/C=N/Nc2ccnc3cc(Cl)ccc23)c(O)c1
[1]
  EC50: 10.3 µM (inactive)
[2]
  cell count: 1690 cells

## COC(=O)c1cc2c(-c3ccccc3)c(C)c3ccccn3c-2c1C(=O)OC
[1]
  EC50: 11.3 µM (inactive)
[2]
  cell count: 2900 cells

## O=[N+]([O-])c1ccc(N/N=C/c2ccc[nH]2)cc1
[1]
  EC50: 4.32 µM
[2]
  cell count: 841 cells

## CCN(CC)c1ccc(/C=C/C(=O)c2ccc(Br)cc2)cc1
[1]
  EC50: 3.67 µM
[2]
  cell count: 2880 cells

## CN1CC=C2C(C#N)=C(N)C(C#N)(C#N)[C@H](c3ccoc3)[C@H]2C1
[1]
  EC50: > 16 µM (inactive)
[2]
  cell count: 1690 cells

## COc1ccc(CN2C(=O)/C(=C/c3ccc(-c4ccc(Cl)c(C(=O)O)c4)o3)SC2=S)cc1
[1]
  EC50: > 16 µM (inactive)
[2]
  cell count: 3020 cells

## COc1ccc(CN=Cc2[nH]c3ccc(Br)c(Cl)c3c2O)cc1
[1]
  EC50: > 16 µM (inactive)
[2]
  cell count: 3150 cells

## COc1cc2c3nnc(-c4ccc(F)cc4)c-3cn(Cc3ccccc3)c2cc1OC
[1]
  EC50: 2.58 µM
[2]
  cell count: 338 cells

## CCN(CC)c1ccc2cc(C(=O)Nc3ccccn3)c(=O)oc2c1
[1]
  EC50: 5.37 µM
[2]
  cell count: 3080 cells

## C=CCN1C(=O)c2cccc3c(N4CCCCC4)ccc(c23)C1=O
[1]
  EC50: 6.64 µM
[2]
  cell count: 3300 cells

## CC(=O)n1c(C=Nc2ccccc2)c(O)c2ccccc21
[1]
  EC50: 8.96 µM
[2]
  cell count: 3060 cells

## Cc1ccc(/C(C#N)=C\c2ccc(N3CCOCC3)o2)cc1
[1]
  EC50: 10.3 µM (inactive)
[2]
  cell count: 1110 cells

## CN1CC=C2C(C#N)=C(N)C(C#N)(C#N)C(c3cccc(Cl)c3Cl)C2C1 (configuration not stated)
[1]
  EC50: 11.9 µM (inactive)
[2]
  cell count: 3010 cells

## CN1CC=C2C(C#N)=C(N)C(C#N)(C#N)[C@H](c3cccc(Cl)c3)C2C1 (some centres not stated)
[1]
  EC50: 9.06 µM
[2]
  cell count: 2960 cells

## Cc1ccc(CNc2ccc3c(c2)OCO3)cc1
[1]
  EC50: 6.18 µM
[2]
  cell count: 2720 cells
